Assay results reported in ChEMBL document CHEMBL4028802, “DILIrank: the largest reference drug list ranked by the risk for developing drug-induced liver injury in humans” (Drug Discov Today, 2016).
Non-standard residues stand in square brackets, D forms with d. Residues, ends and D or L forms follow the SMILES beside them. d(hArg(Et2)) = CCN=C(NCC)NCCCC[C@@H](N)C(=O)O; hArg(Et2) = CCN=C(NCC)NCCCC[C@H](N)C(=O)O; dPhe(4-Cl) = N[C@H](Cc1ccc(Cl)cc1)C(=O)O; d2Nal = N[C@H](Cc1ccc2ccccc2c1)C(=O)O; d3Pal = N[C@H](Cc1cccnc1)C(=O)O

Experiments:
Homo sapiens [1] = organism: Homo sapiens; assay: Liver toxicity in human assessed as induction of drug-induced liver injury by measuring verified drug-induced liver injury concern status
Homo sapiens [2] = organism: Homo sapiens; assay: Liver toxicity in human assessed as induction of drug-induced liver injury by measuring severity class index
Wherever DILI severity class is given: key of the grades not given here.

| Compound | DILI_Concern (Homo sapiens [1]) | DILI_severity_class (Homo sapiens [2]) |
| --- | --- | --- |
| CN(C)CCOC(C)(c1ccccc1)c1ccccn1 (stereo not given) [DOXYLAMINE] | No-Dili-Concern | 0 |
| O=C1CCc2cc(OCCCCc3nnnn3C3CCCCC3)ccc2N1 [CILOSTAZOL] | Ambiguous-Dili-Concern | 5 |
| CCC(=O)O[C@](Cc1ccccc1)(c1ccccc1)[C@H](C)CN(C)C [PROPOXYPHENE] | Less-Dili-Concern | 3 |
| C[C@@H](O)[C@H]1C(=O)N2C(C(=O)O)=C(S[C@@H]3CN[C@H](C(=O)N(C)C)C3)[C@H](C)[C@H]12 [MEROPENEM] | Less-Dili-Concern | 3 |
| CCC[C@@H]1C[C@@H](C(=O)N[C@@H]([C@H]2O[C@H](SC)[C@H](O)[C@@H](O)[C@H]2O)[C@@H](C)O)N(C)C1 [LINCOMYCIN] | Ambiguous-Dili-Concern | 3 |
| C[C@]12CCC(=O)C=C1CC[C@@H]1[C@@H]2[C@@H](O)C[C@@]2(C)[C@H]1CC[C@]2(O)C(=O)CO [HYDROCORTISONE] | No-Dili-Concern | 0 |
| CCC1(c2ccccc2)NC(=O)N(C)C1=O (stereo not given) [MEPHENYTOIN] | Ambiguous-Dili-Concern | 5 |
| CC(=O)O.CC(=O)O.CC/N=C(\NCC)NCCCC[C@H](NC(=O)[C@H](CC(C)C)NC(=O)[C@@H](CCCCN/C(=N/CC)NCC)NC(=O)[C@H](Cc1ccc(O)cc1)NC(=O)[C@H](CO)NC(=O)[C@@H](Cc1cccnc1)NC(=O)[C@@H](Cc1ccc(Cl)cc1)NC(=O)[C@@H](Cc1ccc2ccccc2c1)NC(C)=O)C(=O)N1CCC[C@H]1C(=O)N[C@H](C)C(N)=O [GANIRELIX ACETATE] (Ac-[d2Nal][dPhe(4-Cl)][d3Pal]SY[d(hArg(Et2))]L[hArg(Et2)]P[dA]-NH2) | No-Dili-Concern | 0 |
| POLYMYXIN B SULFATE | No-Dili-Concern | 0 |
| CC(=O)Oc1ccc(C(c2ccc(OC(C)=O)cc2)c2ccccn2)cc1 [BISACODYL] | No-Dili-Concern | 0 |
| COc1c(C)c2c(c(O)c1C/C=C(\C)CCC(=O)O)C(=O)OC2 [MYCOPHENOLIC ACID] | Ambiguous-Dili-Concern | 3 |
| OC[C@H]1O[C@@H](O[C@@H]2[C@@H](CO)O[C@](O)(CO)[C@H]2O)[C@H](O)[C@@H](O)[C@H]1O [LACTULOSE] | No-Dili-Concern | 0 |
| CO/N=C(\C(=O)N[C@@H]1C(=O)N2C(C(=O)O)=C(COC(N)=O)CS[C@H]12)c1ccco1 [CEFUROXIME] | Less-Dili-Concern | 5 |
| Nc1nc2ncc(CNc3ccc(C(=O)N[C@@H](CCC(=O)O)C(=O)O)cc3)nc2c(=O)[nH]1 [FOLIC ACID] | No-Dili-Concern | 0 |
| NC(=O)c1cnccn1 [PYRAZINAMIDE] | Less-Dili-Concern | 3 |
| CC[N+](CC)(CCNC(=O)C(=O)NCC[N+](CC)(CC)Cc1ccccc1Cl)Cc1ccccc1Cl [AMBENONIUM] | No-Dili-Concern | 0 |
| C[C@]12CCC(=O)C=C1CC[C@@H]1[C@@H]2CC[C@@]2(C)[C@H]1CC[C@]2(C)O [METHYLTESTOSTERONE] | Less-Dili-Concern | 2 |
| CN(C)C(=N)N=C(N)N [METFORMIN] | Less-Dili-Concern | 0 |
| C/C(=C\c1csc(C)n1)[C@@H]1C[C@@H]2O[C@]2(C)CCC[C@H](C)[C@H](O)[C@@H](C)C(=O)C(C)(C)[C@@H](O)CC(=O)N1 [IXABEPILONE] | Ambiguous-Dili-Concern | 7 |
| CC(C)NCC(O)COc1ccc(CC(N)=O)cc1 (stereo not given) [ATENOLOL] | Less-Dili-Concern | 4 |
| OCCN1CCN(CCCN2c3ccccc3Sc3ccc(Cl)cc32)CC1 [PERPHENAZINE] | Less-Dili-Concern | 3 |
| CC(=O)Nc1nnc(S(N)(=O)=O)s1 [ACETAZOLAMIDE] | Most-Dili-Concern | 8 |
| Nc1ccn([C@@H]2O[C@H](CO)[C@@H](O)C2(F)F)c(=O)n1 [GEMCITABINE] | Most-Dili-Concern | 8 |
| Nc1ccc(S(=O)(=O)Nc2ncccn2)cc1 [SULFADIAZINE] | Less-Dili-Concern | 3 |
| CCC(=O)NCC[C@@H]1CCc2ccc3c(c21)CCO3 [RAMELTEON] | No-Dili-Concern | 0 |

| Compound | DILI_Concern (Homo sapiens [1]) | DILI_severity_class (Homo sapiens [2]) |
| --- | --- | --- |
| C[C@@H](c1ncncc1F)[C@](O)(Cn1cncn1)c1ccc(F)cc1F [VORICONAZOLE] | Most-Dili-Concern | 8 |
| CC1=C(C/C=C(\C)CCC[C@H](C)CCC[C@H](C)CCCC(C)C)C(=O)c2ccccc2C1=O [PHYTONADIONE] | No-Dili-Concern | 0 |
| Cc1nc2n(c(=O)c1CCN1CCC(c3noc4cc(F)ccc34)CC1)CCCC2O (stereo not given) [PALIPERIDONE] | No-Dili-Concern | 0 |
| N=C(N)NC(=O)Cc1c(Cl)cccc1Cl [GUANFACINE] | Ambiguous-Dili-Concern | 3 |
| COc1ccc(Cc2nccc3cc(OC)c(OC)cc23)cc1OC [PAPAVERINE] | Most-Dili-Concern | 5 |
| CCS(=O)(=O)CCn1c([N+](=O)[O-])cnc1C [TINIDAZOLE] | Less-Dili-Concern | 3 |
| CUPRIC CHLORIDE | No-Dili-Concern | 0 |
| CCOC(Nc1ccc(C(=O)O)cc1)C(=O)c1ccc(-c2ccccc2)cc1 (stereo not given) [XENAZOIC ACID] | Most-Dili-Concern | 8 |
| C#Cc1cccc(Nc2ncnc3cc(OCCOC)c(OCCOC)cc23)c1 [ERLOTINIB] | Most-Dili-Concern | 8 |
| Cc1nc(C)c2c(n1)N(Cc1ccc(-c3ccccc3-c3nnn[nH]3)cc1)C(=O)CC2 [TASOSARTAN] | Most-Dili-Concern | 8 |
| C[C@]12C=CC(=O)C=C1CC[C@@H]1[C@@H]2[C@@H](O)C[C@@]2(C)[C@H]1CC[C@]2(O)C(=O)CO [PREDNISOLONE] | Less-Dili-Concern | 3 |
| CNC(=O)c1cnn(-c2nc(N)c3ncn([C@@H]4O[C@H](CO)[C@@H](O)[C@H]4O)c3n2)c1 [REGADENOSON ANHYDROUS] | No-Dili-Concern | 0 |
| CC[C@]1(O)C[C@H]2CN(CCc3c([nH]c4ccccc34)[C@@](C(=O)OC)(c3cc4c(cc3OC)N(C=O)[C@H]3[C@@](O)(C(=O)OC)[C@H](OC(C)=O)[C@]5(CC)C=CCN6CC[C@]43[C@@H]65)C2)C1 [VINCRISTINE] | Less-Dili-Concern | 8 |
| H-SEEPPISLDLTFHLLREVLEMARAEQLAQQAHSNRKMLEII-OH | No-Dili-Concern | 0 |
| CCn1cc(C(=O)O)c(=O)c2ccc(C)nc21 [NALIDIXIC ACID] | Ambiguous-Dili-Concern | 3 |
| Cc1cccc([C@H](C)c2cnc[nH]2)c1C [DEXMEDETOMIDINE] | Ambiguous-Dili-Concern | 4 |
| CSc1ccc2c(c1)N(CCC1CCCCN1C)c1ccccc1S2 (stereo not given) [THIORIDAZINE] | Less-Dili-Concern | 5 |
| CS(=O)(=O)Nc1ccc([N+](=O)[O-])cc1Oc1ccccc1 [NIMESULIDE] | Most-Dili-Concern | 8 |
| N[C@@H](Cc1cc(I)c(Oc2ccc(O)c(I)c2)c(I)c1)C(=O)O [LIOTHYRONINE] | No-Dili-Concern | 0 |
| CCCC[C@](C)(O)C/C=C/[C@H]1[C@H](O)CC(=O)[C@@H]1CCCCCCC(=O)OC | Ambiguous-Dili-Concern | 3 |
| CO/N=C(\C(=O)N[C@@H]1C(=O)N2C(C(=O)O)=C(COC(C)=O)CS[C@H]12)c1csc(N)n1 [CEFOTAXIME] | Less-Dili-Concern | 5 |
| C/C(=N\O)C(C)NCC(C)(C)CNC(C)/C(C)=N/O (stereo not given) [EXAMETAZIME] | No-Dili-Concern | 0 |
| OC(Cn1cncn1)(Cn1cncn1)c1ccc(F)cc1F [FLUCONAZOLE] | Most-Dili-Concern | 8 |
| NCCCC[C@H](N[C@@H](CCc1ccccc1)C(=O)O)C(=O)N1CCC[C@H]1C(=O)O [LISINOPRIL ANHYDROUS] | Less-Dili-Concern | 3 |
| COc1cccc2c1C(=O)c1c(O)c3c(c(O)c1C2=O)C[C@@](O)(C(=O)CO)C[C@@H]3O[C@H]1C[C@H](N)[C@@H](O)[C@H](C)O1 [EPIRUBICIN] | Ambiguous-Dili-Concern | 3 |
